Entries after “also recorded” stand apart in the source; their conditions may differ.
Legend:
Sp1 = Sp1 protein (Western blot); type: cell-based, murine; conditions: FIG. 13B
Method: Western blots (Sp1, MnSOD, UCP2): Cells were grown in six-well tissue culture plates, treated with selenium for 72 h and activated with LPS and IFN-γ for 24 h. The wells were washed with PBS, scraped and centrifuged
(5 min. 2000 RPM), and lysed by addition of boiling hot lysis buffer (1% SDS, 1 mM sodium ortho-vanadate, 10 mM Tris pH 7.4) to the pellets. Protein content was measured (BIO RAD protein assay kit) and equalized. Sample buffer (containg SDS) was added and the samples were boiled. The samples were subjected to SDS-PAGE followed by western blot analysis. Separated proteins were transferred electrophoretically from the gel to a nitrocellulose membrane (Amersham International plc, Buckinghamshire, ENGLAND). The membrane was blocked in TBS (0.15 M NaCl/10 mM Tris/HCl, pH7.4) containing 5% (v/v) skimmed milk (Blotto), then incubated over night with primary antibodies at RT (diluted 1/2000 in blotto). After being washed six times in TBST [TBS containing 0.05% (v/v) Tween 20], the membrane was incubated for 2 h at room temperature with secondary antibody (diluted 1/5000 in blotto). Immunoreactive bands were detected with ECL western blotting detection reagents (Amersham Pharmacia Biotech, Buckingammshire England) and developed on film (Fuji super RX, Dusseldorf, Germany). […]

NRF-1 = test: NRF1 mRNA in colon tissue (RT-PCR); type: in vivo, rat
Method: Mitochondrial (mt) TFA, NRF1, and cytochrome c mRNA analysis: Total RNA was extracted from 50 to 100 mg tissue at a time using 1 ml of Tri Reagent® (Sigma-Aldrich Corp., St. Louis, Mo.) according to manufacturer's instructions. First strand cDNA synthesis was carried out using reverse-iTTM First Strand Synthesis from Advanced Biotechnologies (ABgene®, ABgene, Epsom, U.K.) was used according to the manufacturer's instructions. Target sequences were amplified in the PCR reaction as follows: each tube contained 37 ng of cDNA from cytochrome c, GAPDH, or 18S, 3 μl of specific primers, 12.5 μl of ready Mix and 6.5 μl water DEPC (for a total 25 μl in each tube).
The PCR for cytochrome c, NRF1 and mtTFA was run at 95° C. for 5 min, 94° C. for 30 sec, 56° C. for 2 min, 72° C. for 1 min, back to stage 2 for 22, 26, 24 cycles, respectively, then 72° C. for 10 min, and 4° C. The products of the PCR were separated on a 1% agarose gel in TAE buffer with ethidium bromide. The electrophoresis took place in a BioRad device in 1×TAE buffer at 95 V for about 50 min (maximum mA). The size of the cDNA was determined by a 100-bp marker.
Rat NFR-1: (Antisense) 5′-[…]-3′ (SEQ ID No. 13) corresponding to nucleotides 450 to 469 of rat NFR-1 (GenBank Accession No. XM231566).
(Sense): 5′-[…] -3′ (SEQ ID No. 14). The expected PCR product was 461 bp, the actual 461 bp.

[1] = system: mitochondrial respiration in colon tissue; test: Mitochondrial respiration (oxygen consumption) in colon tissue of supplemented rats; type: in vivo, rat
Method: Mitochondrial respiration activity in colon tissue: Mitochondrial respiration was measured by direct assessment of oxygen consumption of the tissue. Briefly, colons were removed, chilled on ice, and washed extensively with cold PBS. Colon tissue samples (5-10 mm in width, 100 mg) were incubated at ambient temperature in PBS supplemented with 5 mM glucose. Oxygen consumption was measured polarographically using a computerized Clark-type oxygen electrode. The addition of the Electron Transport Chain (complex 1) inhibitor rotenone was used to determine whether the majority of oxygen consumption measured in the colon samples was mitochondrial respiration-dependent.

[Se] [selenium] was tested, and the “Sp-1 gene expression / synthesis (Western blot)” value (Sp1) was “no change”, the “NRF-1 levels in colon tissue, colitis-induced rats” value (NRF-1; 24 h after TNBS, supplemented (FIG. 17 lane 4), unsupplemented nearly 50% reduction) was “surpass that of healthy control rats” and the “NRF-1 levels in colon tissue, healthy rats” value (NRF-1; healthy supplemented rats (FIG. 17 lane 2)) was “significantly enhances”. The “hapten-induced impairment in oxygen consumption” value ([1]; 24 h after TNBS, supplemented vs unsupplemented (FIG. 5 C vs D), unsupplemented approximately 70% impairment) was “prevented a significant proportion” and the “oxygen consumption in healthy colon tissue” value ([1]; healthy rats, supplemented vs unsupplemented (FIG. 5 B vs A)) was “little effect; also recorded: did not enhance”.
